For 10 compounds, EC50 results are on record in BindingDB's records for doi:10.1021/acs.jmedchem.8b00655 (University of Iowa, 2018).

Molecules are shown by their SMILES.

In general, EC50 refers to the concentration giving half of the maximal effect.

A short description of the assay: Binding affinity to BTN3A1 in human PBMC assessed as stimulation of Vgamma9 Vdelta2 T cells incubated for 3 days and measured after 11 days post compound removal by flow cytometry.
For `COC(=O)CNP(=O)(CC/C=C(\C)CO)Oc1ccccc1` (stereo not given), the EC50 came to 1.5 nM.

Regarding `COP(=O)(CC/C=C(\C)CO)OC`, the EC50 is over 10000 nM.

For the compound `CCOC(=O)CNP(=O)(CC/C=C(\C)CO)Oc1cccc2ccccc12` (stereo not given), the EC50 was determined as 0.36 nM.

Take `CCOC(=O)CNP(=O)(CC/C=C(\C)CO)Oc1ccccc1` (stereo not given): the EC50 was 0.36 nM.

Regarding `CCOC(=O)CNP(=O)(CC/C=C(\C)CO)Oc1ccc2ccccc2c1` (stereo not given), the EC50 came to 0.53 nM.

As for `C/C(=C\CCP(=O)(NCC(=O)OC(C)C)Oc1cccc2ccccc12)CO` (stereo not given), the EC50 was 0.34 nM.

In the case of `COC(=O)CNP(=O)(CC/C=C(\C)CO)Oc1ccc2ccccc2c1` (stereo not given), the EC50 was determined as 0.58 nM.

Consider `C/C(=C\CCP(=O)(NCC(=O)OC(C)C)Oc1ccccc1)CO` (stereo not given), for which the EC50 is 1.1 nM.

Take `COC(=O)CNP(=O)(CC/C=C(\C)CO)Oc1cccc2ccccc12` (stereo not given): the EC50 amounted to 0.44 nM.

For the compound `C/C(=C\CCP(=O)(NCC(=O)OC(C)C)Oc1ccc2ccccc2c1)CO` (stereo not given), the EC50 was determined as 0.82 nM.
